Here are results for 15 compounds from patent US20090029949A1, “GPCR Ligands Identified by Computational Modeling” (priority 2006, published 2009).

One assay has as its target LPA1 (Homo sapiens, UniProt Q92633). The assay is described as follows: LPA agonist/antagonist activity at LPA1 (Table 2). It is filed as cell-based. As to conditions: for LPA1 effect: result in words.
The next assay deals with T1, LPA3 (Homo sapiens, UniProt Q9UBY5).
T1 sequence (Q9UBY5 1-353): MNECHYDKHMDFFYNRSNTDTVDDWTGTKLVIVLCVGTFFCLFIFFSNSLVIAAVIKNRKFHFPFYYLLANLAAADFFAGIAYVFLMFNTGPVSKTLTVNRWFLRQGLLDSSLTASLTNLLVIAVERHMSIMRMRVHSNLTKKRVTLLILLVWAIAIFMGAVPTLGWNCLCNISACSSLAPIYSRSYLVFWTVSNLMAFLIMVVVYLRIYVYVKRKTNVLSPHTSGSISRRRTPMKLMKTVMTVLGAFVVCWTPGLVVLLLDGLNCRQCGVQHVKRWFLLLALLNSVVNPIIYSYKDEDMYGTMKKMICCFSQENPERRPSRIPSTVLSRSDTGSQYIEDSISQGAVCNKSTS
The assay is described as follows: LPA agonist/antagonist activity at LPA3 (Table 2). It is filed as cell-based. Conditions: for LPA3 inhibition of 200 nM LPA response at 30JM: compound at 30JM; for LPA3 effect: result in words.

The target in another assay is LPA2 (Homo sapiens, UniProt Q9HBW0). The assay is described as follows: LPA agonist/antagonist activity at LPA2 (Table 2). It is filed as cell-based. Conditions: for LPA2 effect: result in words.
Chain of LPA2 (Q9HBW0 whole entry, species assumed): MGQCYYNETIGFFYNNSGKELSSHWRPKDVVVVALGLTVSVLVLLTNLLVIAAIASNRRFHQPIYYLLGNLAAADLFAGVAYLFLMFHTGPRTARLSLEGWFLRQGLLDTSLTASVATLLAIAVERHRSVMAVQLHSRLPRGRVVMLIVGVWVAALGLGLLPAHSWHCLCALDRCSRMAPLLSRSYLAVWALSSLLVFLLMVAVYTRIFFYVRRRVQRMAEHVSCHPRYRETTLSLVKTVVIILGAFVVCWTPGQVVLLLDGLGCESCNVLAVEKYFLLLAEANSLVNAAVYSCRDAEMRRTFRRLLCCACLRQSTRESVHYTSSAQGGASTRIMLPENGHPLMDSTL
A further assay has as its target WT S1P1 (Homo sapiens, UniProt P21453). The assay is described as follows: Ligand-induced [35S]GTPγS binding, WT S1P1. The format is biochemical. The arrangement: expressed in transfected cells; host or cells: RH7777 (transient, pcDNA3.1). Conditions: for S1P1 receptor activation in the GTPγS activation assay: at 10 μM, versus vehicle; for S1P1 agonist character: result in words. How it is done:
(§1) RH7777 and HEK-293 cells (ATCC, Manassas, Va.) were maintained in Dulbecco's modified minimal essential medium (DMEM) containing 10% fetal bovine serum (Hyclone, Logan, Utah). Cells (2×10^6) were transfected with 2 μg of plasmid DNA with Effectene (Qiagen, Valencia, Calif.) according to the manufacturer's instructions, for 24 h. Before ligand binding and receptor activation assays, the cells were washed twice with serum-free DMEM and serum-starved for at least 6 h.
(§2) S1P1 Receptor Activation Assays Receptor functional assays were performed in transiently transfected RH7777 cells by measuring S1P-activated [^35S]GTPγS binding as previously described (28).
A general note: GTPγS is a poorly hydrolysed GTP analogue; its binding reports G protein activation.

The target of the next assay is T2, S1P1 mutant V6.40L (Homo sapiens, UniProt P21453, V261L).
T2 construct: expressed in transfected cells; host or cells: RH7777
T2 sequence (P21453 whole entry V261L): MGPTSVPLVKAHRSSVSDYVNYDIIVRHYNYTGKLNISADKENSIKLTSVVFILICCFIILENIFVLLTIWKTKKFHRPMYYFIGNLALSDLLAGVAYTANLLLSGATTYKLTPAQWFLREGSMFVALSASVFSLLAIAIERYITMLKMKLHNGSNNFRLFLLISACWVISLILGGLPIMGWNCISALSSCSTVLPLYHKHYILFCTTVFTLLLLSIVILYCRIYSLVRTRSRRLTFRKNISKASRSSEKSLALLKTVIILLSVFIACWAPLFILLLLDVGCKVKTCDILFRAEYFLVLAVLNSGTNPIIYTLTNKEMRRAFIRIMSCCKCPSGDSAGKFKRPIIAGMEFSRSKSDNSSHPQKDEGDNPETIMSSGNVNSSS
The assay is described as follows: [35S]GTPγS binding, S1P1 V6.40L. It is filed as biochemical. As to conditions: S1P1 V6.40L, result in words. The protocol: as §1, §2

The next assay has as its target S1P1 mutant L3.36E (Homo sapiens, UniProt P21453, L128E). The assay is described as follows: [35S]GTPγS binding, S1P1 L3.36E. The format is biochemical. The arrangement: expressed in transfected cells; host or cells: RH7777 (transient, pcDNA3.1). Conditions: S1P1 L3.36E, result in words, compared with S1P. The protocol: as §1, §2
In a further assay the target is T3, S1P1 mutant F5.48G (Homo sapiens, UniProt P21453, F210G).
T3 construct: expressed in transfected cells
T3 sequence (P21453 whole entry F210G): as the sequence (P21453 whole entry V261L) above, with F210G, L261V counted along it
The assay is described as follows: [35S]GTPγS binding, S1P1 F5.48G. It is filed as biochemical. As to conditions: S1P1 F5.48G, result in words, compared with S1P. How it is done:
as §1, §2

In another assay the target is T4, S1P1 mutant W6.48A (Homo sapiens, UniProt P21453, W269A).
T4 construct: expressed in transfected cells
T4 sequence (P21453 whole entry W269A): as the sequence (P21453 whole entry V261L) above, with L261V, W269A counted along it
The assay is described as follows: [35S]GTPγS binding, S1P1 W6.48A. The format is biochemical. As to conditions: S1P1 W6.48A, result in words, compared with S1P. How it is done:
as §1, §2

Entries after “also recorded” stand apart in the source; their conditions may differ. Peptide text beside a SMILES is read from it. * marks the point of attachment. Dnp = O=[N+]([O-])c1ccc(*)c([N+](=O)[O-])c1

Chain of LPA1 (Q92633 whole entry, species assumed): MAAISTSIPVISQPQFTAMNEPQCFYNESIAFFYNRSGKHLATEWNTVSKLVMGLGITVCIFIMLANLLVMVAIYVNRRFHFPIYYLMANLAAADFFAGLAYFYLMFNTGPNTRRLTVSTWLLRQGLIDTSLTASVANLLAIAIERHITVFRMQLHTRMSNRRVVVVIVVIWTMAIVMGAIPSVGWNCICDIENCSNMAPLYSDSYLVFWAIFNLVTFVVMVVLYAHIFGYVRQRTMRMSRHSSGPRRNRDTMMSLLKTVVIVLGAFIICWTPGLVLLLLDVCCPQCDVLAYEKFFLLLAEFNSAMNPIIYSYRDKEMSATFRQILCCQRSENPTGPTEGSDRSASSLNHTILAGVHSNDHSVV
Chain of WT S1P1 (P21453 whole entry): as the sequence (P21453 whole entry V261L) above, with L261V counted along it
Chain of S1P1 mutant L3.36E (P21453 whole entry L128E): as the sequence (P21453 whole entry V261L) above, with L128E, L261V counted along it

As a reminder, the IC50 is the concentration that gives 50% inhibition. A lower IC50 goes with greater potency. For `COc1ccc(C(=O)CCCC(=O)O)c(OC)c1O` [NSC 10167], at LPA1, the LPA1 effect result is given as “No Effect”. For the same compound, on LPA3, the 50% inhibitory concentration (IC50) stood at 517 nM and the “LPA3 Inhibition of 200 nM LPA response” value is 49.9%. On LPA2, the IC50 worked out at 88 nM and the “LPA2 Inhibition of 10 nM LPA response” value was 47.4%.
As for `CCN(CC)CCOc1ccc(/C(C#N)=C\c2ccc(C(F)(F)F)cc2)cc1` [NSC59474], on WT S1P1, the “S1P1 receptor activation in the GTPγS activation assay” value is reported as “GTPγS activation greater than that of the vehicle” and the S1P1 agonist character entry was “partial agonists”.
For `COc1ccc2c(c1)c(CC(=O)O)c(C)n2C(=O)c1ccc(Cl)cc1` [NSC 77541], at LPA1, the LPA1 effect entry is recorded as “Weak agonist”. Also, the “LPA3 inhibition of 200 nM LPA response at 30JM” value on LPA3 came to 76.2%. Moreover, the LPA2 effect entry at LPA2 was “No Effect”.
For orientation: Ki means the dissociation constant of the complex between target and ligand, obtained from inhibition or displacement. A high value points to weaker binding. Take `Cn1c(=O)c2c(nc(C(=N)SCC(=O)O)n2C)n(C)c1=O` [NSC 62586]: the IC50 was 234 nM at LPA1, 35 nM at LPA3 and 172 nM on LPA2. The inhibition constant (Ki) on LPA1 stood at 91.7 nM; at LPA3, 15.7 nM; at LPA2 it was 117 nM.
For `CCCC(=O)Nc1ncnc2c1ncn2C1OC2COP(=O)(O)OC2C1OC(=O)CCC` (centres unmarked) [NSC 143108], the LPA1 effect entry at LPA1 is given as “Weak agonist”. Further, on LPA3, the half-inhibitory concentration (IC50) came to 1310 nM and the “LPA3 inhibition of 200 nM LPA response at 30JM” value was 61.0%. The LPA2 effect entry at LPA2 is “No Effect”.
In the case of `FC(F)(F)c1cccc(-c2noc(-c3cc(-c4ccccc4)c(C(F)(F)F)s3)n2)c1` [SEW2871], the “ligand-induced GTPγS activation” value was “slightly activated; also recorded: partial activation” at S1P1 mutant V6.40L; “dose-dependent partial activation” at S1P1 mutant V6.40L (listed as SE2871); “similarly impaired activation” at S1P1 mutant L3.36E; “similarly impaired activation” at S1P1 mutant F5.48G; “similarly impaired activation” at S1P1 mutant W6.48A.
For the compound `Cc1cc2nc3c(=O)[nH]c(=O)nc-3n(CCOC(=O)CCC(=O)O)c2cc1C` [NSC 3066], the concentration for half-maximal inhibition (IC50) was determined as 197 nM on LPA1, 103 nM on LPA3 and 167 nM at LPA2. Further, the Ki on LPA1 was 91.7 nM; on LPA3, 44.8 nM; on LPA2 it was 78.7 nM.
`O=C(O)/C=C/C(=O)Nc1cccc(NC(=O)/C=C/C(=O)O)c1C(=O)O` [NSC 47091]: the LPA1 effect result on LPA1 is “No effect”. Also, on LPA3, the 50% inhibitory concentration (IC50) was determined as 30 nM and the “LPA3 Inhibition of 200 nM LPA response” value is given as 81.7%. Besides, on LPA2, the IC50 was found to be 355 nM and the “LPA2 Inhibition of 10 nM LPA response” value is given as 53.5%.
With `O=P(O)(O)OC[C@H]1O[C@@H](n2cnc3c(NCc4ccccc4)ncnc32)C(O)C1O` (some centres unmarked) [NSC 255523], the LPA1 effect entry at LPA1 is on record as “No effect”. At LPA3, the LPA3 effect result is on record as “PotentiatesLPA-inducedactivation”. Moreover, the LPA2 effect entry on LPA2 was “No effect”.
For `NCC(=O)NC(CSc1ccc([N+](=O)[O-])cc1[N+](=O)[O-])C(=O)NC(CCC(=O)O)C(=O)O` (centres unmarked) [NSC 161613] (H-Gly-Cys(Dnp)-Glu-OH; configuration not given here), the LPA1 effect entry on LPA1 is given as “No effect”. Further, at LPA3, the IC50 is 24 nM and the “LPA3 Inhibition of 200 nM LPA response” value was 69.8%. Moreover, the LPA2 effect entry on LPA2 is “No effect”.
Regarding `OC1C(O)[C@@H](COP(O)(O)=S)O[C@H]1n1cnc2c(NCc3ccccc3)ncnc21` (some centres unmarked), the LPA1 effect entry at LPA1 is listed as “No effect”. In addition, at LPA3, the LPA3 effect result is listed as “No effect”. Moreover, the LPA2 effect entry on LPA2 is “PotentiatesLPA-inducedactivation”.
As to `O=C(c1ccccc1Cc1ccc2ccc(C(F)(F)F)cc2c1)c1cccc2ccccc12` [NSC99548], at WT S1P1, the “S1P1 receptor activation in the GTPγS activation assay” value is on record as “GTPγS activation greater than that of the vehicle” and the S1P1 agonist character entry was “partial agonists”.
`COC(=O)C(CCC(=O)O)N1C(=O)c2ccccc2C1=O` (centres unmarked) [NSC 16540]: the LPA1 effect result on LPA1 was “No effect”. Besides, on LPA3, the 50% inhibitory concentration (IC50) turned out to be 231 nM and the “LPA3 Inhibition of 200 nM LPA response” value stood at 59.7%. In addition, on LPA2, the half-maximal inhibitory concentration (IC50) came to 100 nM and the “LPA2 Inhibition of 10 nM LPA response” value was 50.9%.
In the case of `O=C(NC(Cc1ccc2c(c1)OCO2)C(=O)O)c1ccccc1` (centres unmarked) [NSC 10188], the LPA1 effect result on LPA1 is “Weak agonist”. The LPA3 effect result on LPA3 is “No effect”. At LPA2, the 50% inhibitory concentration (IC50) was found to be 6900 nM. Further, at LPA2 (200 nM LPA, compound at 30JM), the “LPA2 inhibition of 200 nM LPA response at 30JM” value stood at 55.8%.
With `O=C(O)CCC(NC(=O)OCc1ccccc1)C(=O)NC(Cc1ccccc1)C(=O)O` (centres unmarked) [NSC 18760], the LPA1 effect entry at LPA1 was “No effect”. Moreover, at LPA3, the half-inhibitory concentration (IC50) turned out to be 9 nM and the “LPA3 Inhibition of 200 nM LPA response” value stood at 58.7%. Besides, at LPA2, the concentration for half-maximal inhibition (IC50) was 20 nM and the “LPA2 Inhibition of 10 nM LPA response” value was 53.3%.
